Test [1] deals with T1, metabotropic glutamate receptor 5 (Rattus norvegicus, UniProt P31424).
T1 construct: expressed in transfected cells; host or cells: HEK-293
The test can be described thus: FLIPR Calcium 3 fluorescence-based functional assay of intracellular calcium, mGluR5 antagonist activity. It counts as cell-based. The settings on record: inhibition of glutamate (EC90, ~50 uM) stimulated calcium levels, mGluR5 HEK-293 cells; read-out: mGluR5 FLIPR MP Antagonist DR IC50. From the text: (§1) where [L]=concentration of free radioligand and Kd=dissociation constant of radioligand for the receptor. TITLE: Identification of metabotropic glutamate receptor 5 antagonists using a stable, sensitive fluorescence-based screening system PURPOSE: The aim of the research presented here was to develop a robust functional assay to measure changes in intracellular calcium, with the goal of identifying potent mGluR5 antagonists.
The FLIPR Calcium 3 Assay Kit is designed to work with many cell types, both adherent and non-adherent. Optimal cell conditions for the FLIPR Calcium 3 Assay Kit require the creation of a confluent cell monolayer before placing the plates in FLIPR or FlexStation. In general, we start with 50,000 mGluR5 HEK-293 cells/well for a 96-well plate. For adherent cells, seeding cells overnight with a plating volume of 100 μL/well worked for 96-well plates.
Remove cell plates from the incubator. Remove the supernatant medium. Add 180 ul of Loading Buffer to each well (for 96-well plates). HBSS buffer component B) pipette 100 mL of 10× Hank's Balanced Salt Solution and 20 mL of 1M Hepes buffer
Incubate cell plates for 1 hour at 37° C. and then keep the plates at room temperature until used.
After incubation, transfer the plates directly to FLIPR and begin the calcium assay as described in the FLIPR system manual. For a signal test, a starting average count of ˜10,000 is recommended. Recommended experimental setup parameters are as follows. Faster addition speeds can lead to better mixing of compounds and lower signal variance across the plate.
Test or reference compound is added to the 96-well plate (manually). […] Relative Fluorescence Units (RFUs) are recorded over a given time period (stated above) depending on the platform system used.
For antagonists, results are expressed as % inhibition of glutamate stimulated Calcium levels. IC50 values were calculated by Prism GraphPad using a 4-parameter logistic equation. IC50 values are calculated using GraphPad by fitting to a 1 site-model.

In the next test the target is T2, rat mGluR5 receptor (Rattus norvegicus, UniProt P31424).
T2 construct: expressed in transfected cells; host or cells: HEK-293
T2 sequence (P31424 21-1203): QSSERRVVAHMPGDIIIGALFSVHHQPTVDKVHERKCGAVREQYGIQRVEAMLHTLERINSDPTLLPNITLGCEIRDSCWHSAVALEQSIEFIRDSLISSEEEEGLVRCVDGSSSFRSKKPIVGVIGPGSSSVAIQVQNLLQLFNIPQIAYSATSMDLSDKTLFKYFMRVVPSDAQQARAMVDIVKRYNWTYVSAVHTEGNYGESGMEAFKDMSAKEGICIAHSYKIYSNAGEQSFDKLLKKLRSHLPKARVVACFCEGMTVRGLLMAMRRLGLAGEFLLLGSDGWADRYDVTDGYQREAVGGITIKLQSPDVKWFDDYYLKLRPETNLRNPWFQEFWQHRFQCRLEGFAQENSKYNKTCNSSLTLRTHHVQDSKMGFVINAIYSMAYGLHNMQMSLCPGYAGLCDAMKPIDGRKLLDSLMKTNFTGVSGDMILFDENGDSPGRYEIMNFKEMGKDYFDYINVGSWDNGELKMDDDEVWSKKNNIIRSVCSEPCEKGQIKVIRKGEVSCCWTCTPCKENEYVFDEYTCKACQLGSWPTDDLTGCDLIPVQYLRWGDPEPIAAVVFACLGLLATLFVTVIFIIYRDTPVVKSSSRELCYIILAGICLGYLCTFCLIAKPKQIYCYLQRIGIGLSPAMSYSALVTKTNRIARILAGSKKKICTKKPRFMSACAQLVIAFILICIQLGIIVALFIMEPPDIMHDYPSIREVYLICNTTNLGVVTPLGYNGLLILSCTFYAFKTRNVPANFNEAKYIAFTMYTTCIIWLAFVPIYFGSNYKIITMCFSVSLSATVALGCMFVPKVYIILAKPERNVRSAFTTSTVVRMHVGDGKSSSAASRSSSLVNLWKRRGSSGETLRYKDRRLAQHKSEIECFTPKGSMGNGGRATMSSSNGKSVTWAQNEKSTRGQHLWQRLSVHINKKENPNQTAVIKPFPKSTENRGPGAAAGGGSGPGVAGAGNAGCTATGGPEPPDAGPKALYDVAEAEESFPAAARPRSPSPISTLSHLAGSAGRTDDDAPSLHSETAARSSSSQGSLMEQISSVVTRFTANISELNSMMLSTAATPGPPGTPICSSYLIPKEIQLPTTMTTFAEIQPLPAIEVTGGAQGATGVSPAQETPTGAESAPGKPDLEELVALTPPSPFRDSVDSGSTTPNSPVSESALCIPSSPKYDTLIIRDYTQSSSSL
The test can be described thus: [3H]-MPEP binding HEK-293 cell membranes expressing a rat mGluR5 receptor. The settings on record: displacement of 4 nM [3H]-MPEP, HEK-293 cell membranes expressing rat mGluR5, 60 minute at room temperature; read-out: mGluR5 Ligand Binding DR Ki. The protocol:
TITLE: [^3H]-MPEP binding HEK-293 cell membranes expressing a rat mGluR5 receptor. PURPOSE: To identify high affinity compounds at the rat mGluR5 receptor based on their ability to displace the mGluR5 negative allosteric modulator, MPEP.
mGluR5 expressing HEK-293 cells are scraped off the plate, transferred to centrifuge tubes, and washed twice by centrifugation (2000 rpm for 10 min., 4° C.) in buffer (50 mM Tris pH 7.5). The resulting pellets are aliquoted and placed at −80° C. On the day of assay, the cells are thawed on ice, and resuspended in buffer. The binding assay is performed in a 96 well microtiter plate in a total volume of 250 μL. Non-specific binding is determined in the presence of 10 μM MPEP. Binding reaction includes a final radioligand [^3H]-MPEP concentration of 4 nM and 12-25 ug membrane protein per well. Following a 60 minute incubation at room temperature, the reaction is terminated by the addition of ice cold buffer and rapid filtration through a GF/B filter presoaked for 30 minutes in 0.5% PEI. Compounds are initially tested in a single point assay to determine percent inhibition at 10 μM. Subsequently, Ki values are determined for compounds defined to be active.
% inhibition and Ki values generated by GraphPad Prism and Excel Fit. IC50 values are calculated using GraphPad by fitting to a 1 or 2 site-binding model. Ki values are calculated from the apparent IC50 values using the Cheng-Prussof equation:
as §1

T1 sequence (P31424 21-1203): as above

By IC50 is commonly meant the concentration needed to halve the response being measured. For orientation: Ki means a measure of affinity in units of concentration, obtained from inhibition or displacement. As to “2-[4-methoxy-3-(pyridin-2-ylethynyl)benzoyl]-7-(trifluoromethyl)-1,2,3,4-tetrahydroisoquinoline [Example 16]”, the IC50 in test [1] came out at 125 nM. Further, the Ki at rat mGluR5 receptor worked out at 1 nM.

Take “7-fluoro-2-[4-methoxy-3-(pyridin-2-ylethynyl)benzoyl]-1,2,3,4-tetrahydroisoquinoline [Example 9]”: in test [1], the IC50 was found to be 23 nM. Moreover, at rat mGluR5 receptor, the Ki was 3 nM.

In the case of `COc1ccc(C(=O)N2Cc3ccccc3C2)cc1C#Cc1ccccn1` [Example 1, 2-[4-Methoxy-3-(pyridin-2-ylethynyl)benzoyl]isoindoline], the IC50 in test [1] was determined as 10 nM. The Ki on rat mGluR5 receptor was 4 nM.

Regarding `COc1ccc(C(=O)N2CCc3ccccc3C2)cc1C#Cc1ccccn1` [Example 2, 2-[4-methoxy-3-(pyridin-2-ylethynyl)benzoyl]-1,2,3,4-tetrahydroisoquinoline], the IC50 in test [1] turned out to be 24 nM. Moreover, at rat mGluR5 receptor, the inhibition constant (Ki) turned out to be 3 nM.

`COc1ccc(C(=O)N2CCc3c(F)cccc3C2)cc1C#Cc1ccccn1` [Example 3, 5-fluoro-2-[4-methoxy-3-(pyridin-2-ylethynyl)benzoyl]-1,2,3,4-tetrahydroisoquinoline]: the IC50 in test [1] worked out at 44 nM. The Ki on rat mGluR5 receptor was 2 nM.

On to `COc1ccc(C(=O)N2CCc3c(cccc3C(F)(F)F)C2)cc1C#Cc1ccccn1` [Example 4, 2-[4-methoxy-3-(pyridin-2-ylethynyl)benzoyl]-5-(trifluoromethyl)-1,2,3,4-tetrahydroisoquinoline], for which, in test [1], the IC50 is 134 nM. For the same compound, at rat mGluR5 receptor, the Ki is 0.4 nM.

Consider `COc1ccc(C(=O)N2CCc3cccc(C(F)(F)F)c3C2)cc1C#Cc1ccccn1` [Example 5, 2-[4-methoxy-3-(pyridin-2-ylethynyl)benzoyl]-8-(trifluoromethyl)-1,2,3,4-tetrahydroisoquinoline], for which the half-maximal inhibitory concentration (IC50) in test [1] was found to be 151 nM. On rat mGluR5 receptor, the Ki was 2 nM.

`COc1ccc(C(=O)N2CCc3c(F)ccc(F)c3C2)cc1C#Cc1ccccn1` [Example 6, 5,8-difluoro-2-[4-methoxy-3-(pyridin-2-ylethynyl)benzoyl]-1,2,3,4-tetrahydroisoquinoline]: the half-maximal inhibitory concentration (IC50) in test [1] came out at 52 nM. In addition, the Ki at rat mGluR5 receptor worked out at 2 nM.

Consider `COc1ccc(C(=O)N2CCc3c(Cl)cc(Cl)cc3C2)cc1C#Cc1ccccn1` [Example 7, 5,7-dichloro-2-[4-methoxy-3-(pyridin-2-ylethynyl)benzoyl]-1,2,3,4-tetrahydroisoquinoline], for which the IC50 in test [1] worked out at 176 nM.

On to `COc1ccc(C(=O)N2CCc3ccc(Cl)cc3C2)cc1C#Cc1ccccn1` [Example 8, 7-chloro-2-[4-methoxy-3-(pyridin-2-ylethynyl)benzoyl]-1,2,3,4-tetrahydroisoquinoline], for which the IC50 in test [1] was found to be 16 nM. The inhibition constant (Ki) at rat mGluR5 receptor worked out at 1 nM.

Take `COc1ccc(C(=O)N2CCc3c(Cl)cccc3C2)cc1C#Cc1ccccn1` [Example 10, 5-chloro-2-[4-methoxy-3-(pyridin-2-ylethynyl)benzoyl]-1,2,3,4-tetrahydroisoquinoline]: the IC50 in test [1] turned out to be 50 nM. In addition, the Ki on rat mGluR5 receptor is 1 nM.

As to `COc1ccc(C(=O)N2CCc3ccc(C#N)cc3C2)cc1C#Cc1ccccn1` [Example 11, 2-[4-methoxy-3-(pyridin-2-ylethynyl)benzoyl]-1,2,3,4-tetrahydroisoquinoline-7-carbonitrile], the IC50 in test [1] was found to be 130 nM. For the same compound, the Ki at rat mGluR5 receptor came to 11 nM.

Take `COc1ccc(C(=O)N2CCc3[nH]c4ccccc4c3C2)cc1C#Cc1ccccn1` [Example 12, 2-[4-methoxy-3-(pyridin-2-ylethynyl)benzoyl]-2,3,4,5-tetrahydro-1H-pyrido[4,3-b]indole]: the IC50 in test [1] was more than 1000 nM. For the same compound, the Ki at rat mGluR5 receptor was found to be 8 nM.

In the case of `COc1ccc(C(=O)N2CCc3sccc3C2)cc1C#Cc1ccccn1` [Example 13, 5-[4-methoxy-3-(pyridin-2-ylethynyl)benzoyl]-4,5,6,7-tetrahydrothieno[3,2-c]pyridine], the half-maximal inhibitory concentration (IC50) in test [1] came out at 44 nM. In addition, the Ki on rat mGluR5 receptor turned out to be 5 nM.

On to `COc1ccc(C(=O)N2CCc3ncc(Br)cc3C2)cc1C#Cc1ccccn1` [Example 14, 3-bromo-6-[4-methoxy-3-(pyridin-2-ylethynyl)benzoyl]-5,6,7,8-tetrahydro-1,6-naphthyridine], for which, in test [1], the IC50 amounted to 51 nM. At rat mGluR5 receptor, the Ki stood at 8 nM.

With `COc1ccc(C(=O)N2CCc3nc[nH]c(=O)c3C2)cc1C#Cc1ccccn1` [Example 15, 6-[4-methoxy-3-(pyridin-2-ylethynyl)benzoyl]-5,6,7,8-tetrahydropyrido[4,3-d]pyrimidin-4(3H)-one], the Ki on rat mGluR5 receptor came to 96 nM.

Turning to `COc1ccc(C(=O)N2Cc3ccccc3C2CC(C)(C)O)cc1C#Cc1ccccn1` (centres unmarked) [Example 17, 1-{2-[4-methoxy-3-(pyridin-2-ylethynyl)benzoyl]-2,3-dihydro-1H-isoindol-1-yl}-2-methylpropan-2-ol], the Ki at rat mGluR5 receptor was determined as 612 nM.

Turning to `COc1ccc(C(=O)N2C3CCC2c2ccccc23)cc1C#Cc1ccccn1` [Example 18, 9-[4-methoxy-3-(pyridin-2-ylethynyl)benzoyl]-1,2,3,4-tetrahydro-1,4-epiminonaphthalene], the inhibitory constant (Ki) at rat mGluR5 receptor was 1120 nM.

For the compound `COc1ccc(C(=O)N2CCc3cccc(C4CCN(S(C)(=O)=O)CC4)c3C2)cc1C#Cc1ccccn1` [Example 23, 2-[4-methoxy-3-(pyridin-2-ylethynyl)benzoyl]-8-[1-(methylsulfonyl)piperidin-4-yl]-1,2,3,4-tetrahydroisoquinoline], the Ki on rat mGluR5 receptor is more than 10000 nM.

As to `COc1ccc(C(=O)N2Cc3ccccc3C(Oc3ccc(C(F)(F)F)cc3)C2)cc1C#Cc1ccccn1` (centres unmarked) [Example 24, 2-[4-methoxy-3-(pyridin-2-ylethynyl)benzoyl]-4-[4-(trifluoromethyl)phenoxy]-1,2,3,4-tetrahydroisoquinoline], the Ki on rat mGluR5 receptor worked out at 520 nM.

As for `COc1ccc(C(=O)N2CCc3ccccc3[C@H]2[C@@H]2CCCO2)cc1C#Cc1ccccn1` [Example 28, (1S)-2-[4-methoxy-3-(pyridin-2-ylethynyl)benzoyl]-1-[(2S)-tetrahydrofuran-2-yl]-1,2,3,4-tetrahydroisoquinoline], the inhibition constant Ki at rat mGluR5 receptor came out at 178 nM.

As to `COc1ccc(C(=O)N2CCc3ccccc3C2Cc2ccccc2)cc1C#Cc1ccccn1` (centres unmarked) [Example 30, 1-benzyl-2-[4-methoxy-3-(pyridin-2-ylethynyl)benzoyl]-1,2,3,4-tetrahydroisoquinoline], on rat mGluR5 receptor, the Ki came to 327 nM.

On to `COc1ccc(C(=O)N2CCn3c(nnc3C(F)(F)F)C2)cc1C#Cc1ccccn1` [Example 49, 7-{[4-methoxy-3-(pyridin-2-ylethynyl)phenyl]carbonyl}-3-(trifluoromethyl)-5,6,7,8-tetrahydro[1,2,4]triazolo[4,3-a]pyrazine], for which the Ki on rat mGluR5 receptor came to 269 nM.

For `COc1ccc(C(=O)N2CCNc3ccccc3C2)cc1C#Cc1ccccn1` [Example 56, 4-{[4-methoxy-3-(pyridin-2-ylethynyl)phenyl]carbonyl}-2,3,4,5-tetrahydro-1H-1,4-benzodiazepine], at rat mGluR5 receptor, the Ki was determined as 112 nM.

As to `O=C(c1ccc(OCC2CC2)c(C#Cc2ccccn2)c1)N1Cc2ccccc2C1` [Example 80, 2-{[4-(Cyclopropylmethoxy)-3-(pyridin-2-ylethynyl)phenyl]carbonyl}-2,3-dihydro-1H-isoindole], on rat mGluR5 receptor, the Ki was 189 nM.

`O=C(c1ccc(C(F)(F)F)c(C#Cc2ccccn2)c1)N1CCc2cccnc2C1` [Example 99, 7-{[3-(Pyridin-2-ylethynyl)-4-(trifluoromethyl)phenyl]carbonyl}-5,6,7,8-tetrahydro-1,7-naphthyridine]: the Ki at rat mGluR5 receptor was determined as 34 nM.

As for `O=C(c1ccc(C(F)(F)F)c(C#Cc2ccccn2)c1)N1Cc2ccncc2C1` [Example 102, 2-{[3-(Pyridin-2-ylethynyl)-4-(trifluoromethyl)phenyl]carbonyl}-2,3-dihydro-1H-pyrrolo[3,4-c]pyridine], at rat mGluR5 receptor, the Ki was found to be 120 nM.

The values above are taken from patent US20100273772A1, “Bisaryl Alkynylamides as Negative Allosteric Modulators of Metabotropic Glutamate Receptor 5 (MGLUR5)” (Wyeth LLC, priority 2009, published 2010).
